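Following 48 hours of exposure in 96-well plates, responses at five concentrations were used to interpolate endpoints linearly. The concentration for 50% growth inhibition is given as GI50.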 Calls of active or inactive are those of the source. Cut-off read from the data, not from the text of the source: active = GI50 up to about 1.1 µM and inactive = higher.
Key:
Assay in all cases: growth of human tumour cells (NCI), 48 h
MDA-MB-231 = tested on: MDA-MB-231
MCF7 = tested on: MCF7
PC-3 = tested on: PC-3
NCI-H226 = tested on: NCI-H226
M14 = tested on: M14
CCRF-CEM = tested on: CCRF-CEM
NCI-H460 = tested on: NCI-H460
UO-31 = tested on: UO-31
K562 = tested on: K562
UACC-257 = tested on: UACC-257
786-0 = tested on: 786-0
HT-29 = tested on: HT-29
SK-MEL-5 = tested on: SK-MEL-5
SF-295 = tested on: SF-295
A549 = tested on: A549
SNB-19 = tested on: SNB-19
OVCAR-5 = tested on: OVCAR-5
NCI-H522 = tested on: NCI-H522
RXF 393 = tested on: RXF 393
RPMI-8226 = tested on: RPMI-8226
SN12C = tested on: SN12C
Malme-3M = tested on: Malme-3M
SNB-75 = tested on: SNB-75
EKVX = tested on: EKVX
BT-549 = tested on: BT-549
NCI-H23 = tested on: NCI-H23
UACC-62 = tested on: UACC-62
SK-OV-3 = tested on: SK-OV-3
COLO 205 = tested on: COLO 205
SW-620 = tested on: SW-620
MDA-N = tested on: MDA-N
SK-MEL-28 = tested on: SK-MEL-28
SF-268 = tested on: SF-268
NCI/ADR-RES = tested on: NCI/ADR-RES
DU-145 = tested on: DU-145
MDA-MB-435 = tested on: MDA-MB-435
KM12 = tested on: KM12
HOP-92 = tested on: HOP-92
SF-539 = tested on: SF-539
HCT-15 = tested on: HCT-15
U-251 = tested on: U-251
MOLT-4 = tested on: MOLT-4
Hs-578T = tested on: Hs-578T
SK-MEL-2 = tested on: SK-MEL-2
TK-10 = tested on: TK-10
A498 = tested on: A498
HL-60 = tested on: HL-60
HCC 2998 = tested on: HCC 2998
LOX IMVI = tested on: LOX IMVI
OVCAR-4 = tested on: OVCAR-4
HOP-62 = tested on: HOP-62
HCT-116 = tested on: HCT-116
ACHN = tested on: ACHN
IGROV-1 = tested on: IGROV-1
OVCAR-3 = tested on: OVCAR-3
CAKI-1 = tested on: CAKI-1
OVCAR-8 = tested on: OVCAR-8
SR = tested on: SR
T47D = tested on: T47D

Structure (SMILES): Cn1cc(C2NC(=O)c3ccccc3N2)c2ccccc21 (stereo not drawn)
- GI50 (MDA-MB-231): 2.14 µM (inactive)
- GI50 (MCF7): 0.124 µM (active)
- GI50 (PC-3): 0.188 µM (active)
- GI50 (NCI-H226): 0.746 µM (active)
- GI50 (M14): 0.578 µM (active)
- GI50 (CCRF-CEM): 0.413 µM (active)
- GI50 (NCI-H460): 1.06 µM (active)
- GI50 (UO-31): > 100 µM (inactive)
- GI50 (K562): 0.125 µM (active)
- GI50 (UACC-257): 5.6 µM (inactive)
- GI50 (786-0): 0.955 µM (active)
- GI50 (HT-29): 0.191 µM (active)
- GI50 (SK-MEL-5): 0.182 µM (active)
- GI50 (SF-295): 0.305 µM (active)
- GI50 (A549): 1.22 µM (inactive)
- GI50 (SNB-19): 1.55 µM (inactive)
- GI50 (OVCAR-5): 1.18 µM (inactive)
- GI50 (NCI-H522): 0.695 µM (active)
- GI50 (RXF 393): 0.681 µM (active)
- GI50 (RPMI-8226): 0.249 µM (active)
- GI50 (SN12C): 1.63 µM (inactive)
- GI50 (Malme-3M): 0.316 µM (active)
- GI50 (SNB-75): 0.873 µM (active)
- GI50 (EKVX): 0.998 µM (active)
- GI50 (BT-549): > 100 µM (inactive)
- GI50 (NCI-H23): 1.31 µM (inactive)
- GI50 (UACC-62): 0.373 µM (active)
- GI50 (SK-OV-3): 0.35 µM (active)
- GI50 (COLO 205): 0.925 µM (active)
- GI50 (SW-620): 0.542 µM (active)
- GI50 (MDA-N): 0.0632 µM (active)
- GI50 (SK-MEL-28): 0.643 µM (active)
- GI50 (SF-268): 3.86 µM (inactive)
- GI50 (NCI/ADR-RES): 0.491 µM (active)
- GI50 (DU-145): 0.887 µM (active)
- GI50 (MDA-MB-435): 0.0785 µM (active)
- GI50 (KM12): 0.0612 µM (active)
- GI50 (HOP-92): 22.3 µM (inactive)
- GI50 (SF-539): 1.86 µM (inactive)
- GI50 (HCT-15): 0.191 µM
- GI50 (U-251): 0.889 µM (active)
- GI50 (MOLT-4): 0.255 µM (active)
- GI50 (Hs-578T): 0.649 µM (active)
- GI50 (SK-MEL-2): 2.02 µM (inactive)
- GI50 (TK-10): 2.94 µM (inactive)
- GI50 (A498): 0.206 µM (active)
- GI50 (HL-60): 0.12 µM (active)
- GI50 (HCC 2998): 1.19 µM (inactive)
- GI50 (LOX IMVI): 0.877 µM (active)
- GI50 (OVCAR-4): 0.306 µM (active)
- GI50 (HOP-62): 0.861 µM (active)
- GI50 (HCT-116): 0.587 µM (active)
- GI50 (ACHN): 1.75 µM (inactive)
- GI50 (IGROV-1): 1.51 µM (inactive)
- GI50 (OVCAR-3): 0.489 µM (active)

Structure (SMILES): CC(C)c1ccc(/C=C2/C=C(c3ccc4ccccc4c3)OC2=O)cc1
- GI50 (MDA-MB-231): 99.8 µM (inactive)
- GI50 (CAKI-1): > 82.4 µM (inactive)
- GI50 (MCF7): 88.5 µM (inactive)
- GI50 (PC-3): 49 µM (inactive)
- GI50 (NCI-H226): 73.5 µM (inactive)
- GI50 (M14): 41 µM (inactive)
- GI50 (CCRF-CEM): 2.56 µM (inactive)
- GI50 (NCI-H460): > 78.2 µM (inactive)
- GI50 (UO-31): > 76.2 µM (inactive)
- GI50 (K562): 25.2 µM (inactive)
- GI50 (OVCAR-8): 45.2 µM (inactive)
- GI50 (UACC-257): 21 µM (inactive)
- GI50 (786-0): > 100 µM (inactive)
- GI50 (HT-29): > 95.3 µM (inactive)
- GI50 (SK-MEL-5): 15.2 µM (inactive)
- GI50 (SF-295): > 94.6 µM (inactive)
- GI50 (A549): > 89.7 µM (inactive)
- GI50 (SNB-19): > 100 µM (inactive)
- GI50 (OVCAR-5): > 100 µM (inactive)
- GI50 (NCI-H522): 10.5 µM (inactive)
- GI50 (RXF 393): > 81.1 µM (inactive)
- GI50 (RPMI-8226): 31.3 µM (inactive)
- GI50 (SN12C): 57.1 µM (inactive)
- GI50 (Malme-3M): 15.8 µM (inactive)
- GI50 (SNB-75): > 74.1 µM (inactive)
- GI50 (EKVX): 40 µM (inactive)
- GI50 (BT-549): 33.3 µM (inactive)
- GI50 (NCI-H23): 38.7 µM (inactive)
- GI50 (UACC-62): 35.4 µM (inactive)
- GI50 (SR): 5.94 µM (inactive)
- GI50 (SK-OV-3): > 100 µM (inactive)
- GI50 (COLO 205): 27.9 µM (inactive)
- GI50 (SW-620): > 86.5 µM (inactive)
- GI50 (SK-MEL-28): 55.5 µM (inactive)
- GI50 (SF-268): > 100 µM (inactive)
- GI50 (NCI/ADR-RES): 39.5 µM (inactive)
- GI50 (DU-145): > 100 µM (inactive)
- GI50 (MDA-MB-435): 41.3 µM (inactive)
- GI50 (KM12): 62.1 µM (inactive)
- GI50 (HOP-92): 37.8 µM (inactive)
- GI50 (SF-539): > 100 µM (inactive)
- GI50 (HCT-15): 72.3 µM
- GI50 (U-251): 39.6 µM (inactive)
- GI50 (MOLT-4): 21.2 µM (inactive)
- GI50 (Hs-578T): > 75.2 µM (inactive)
- GI50 (SK-MEL-2): 19.5 µM (inactive)
- GI50 (TK-10): > 70.3 µM (inactive)
- GI50 (A498): > 96.2 µM (inactive)
- GI50 (HL-60): 19.4 µM (inactive)
- GI50 (HCC 2998): > 100 µM (inactive)
- GI50 (LOX IMVI): 40.2 µM (inactive)
- GI50 (OVCAR-4): > 100 µM (inactive)
- GI50 (HOP-62): > 100 µM (inactive)
- GI50 (HCT-116): 68.4 µM (inactive)
- GI50 (ACHN): 38.4 µM (inactive)
- GI50 (IGROV-1): > 85.9 µM (inactive)
- GI50 (OVCAR-3): 60 µM (inactive)
- GI50 (T47D): 43 µM (inactive)
